Experimental data as given in patent publication US20080234368A9, “Therapeutic compositions and methods of use” (Trustees of Dartmouth College, priority 1998, published 2008).

Legend:
COX-2 [1] = assay: Western blot for COX-2 protein in stimulated primary macrophages; format: cell-based, mouse; conditions: concentrations of 1 μM or less; IFN-γ 10 ng/ml, LPS 2 ng/ml, 12 h
Method: (§1) FIG. 14(A) illustrates Western blots; primary mouse macrophages; IFN-γ, 10 ng/ml; LPS, 2 ng/ml were added to cultures together with triterpenoids or dexamethasone (concentrations shown as […]); cells were harvested at 12 h. FIG. 14(B) illustrates Northern blots, RAW 264.7 macrophage-like cell line. IFN-γ, 10 ng/ml; LPS, 1 ng/ml; TNF-α, 10 ng/ml, were added to cultures together with CDDO or dexamethasone. RNA prepared after 12 h; GAPDH used as a loading control. FIG. 14(C) illustrates suppression of production of NO and PGEF in primary macrophages. For NO studies, cells were treated with IFN-γ, 10 ng/ml, together with CDDO (M), dexamethasone (O), TP-82 (□), or oleanolic acid (A). After 48 h, supernatants were analyzed for NO by the Griess reaction. For PGEF studies, cells were treated with IFN-γ, 5 ng/ml, and LPS, 5 ng/ml, together with the same set of inhibitors. After 48 h, PGE was measured in supernatants by immunoassay. Control values (no inhibition) for NO and PGE2 were 4.7 nmol/[…] and 2.2 ng/ml/2×10^5 cells, respectively. FIGS. (14D) and (14E) illustrate (human colon myofibroblasts) ^18Co cells grown in MEM/10% FBS; other methods are the same as reported above for macrophages. FIG. 14(D) illustrates Northern blots showing dose-response for suppression of COX-2 mRNA after induction with IL-1β (30 pg/ml). CDDO was added together with IL-1. […]

iNOS mRNA = assay: Northern blot for iNOS mRNA in RAW 264.7 cells; format: cell-based, mouse; conditions: CDDO 10^−6 M, RAW 264.7, 12 h
Method: as §1

[2] = system: AsPc-1 pancreatic carcinoma cells; assay: Inhibition of cell proliferation (3H-thymidine incorporation); format: cell-based, human; conditions: AsPc-1 (Smad4/DPC4 mutation); 3 or 4 days, 3H-thymidine 2 h
Method: All cells were obtained from ATCC, except as noted. They were grown under standard conditions in either DMEM, DMEM/F 12, or RPMI 1640 media plus 5-10% FBS. CDDO, over the dose range 10^−6 to 10^−10 M, was added to cultures at the time of seeding. Three or 4 days later, cells were treated with ^3H-thymidine for 2 h (12 h in the case of leukemia cells), and then incorporation was measured. “ER” means estrogen receptor.
^aThese cells all have […] mutations (Schutte et al. 1996).

COX-2 [3] = assay: Western blot for IL-1β-induced COX-2 protein in 18Co colon myofibroblasts; format: cell-based, human; conditions: 18Co cells, IL-1β 30 pg/ml
Method: as §1

[4] = system: PC12 pheochromocytoma cells; assay: Neuronal differentiation / neurite outgrowth, image analysis; format: cell-based, rat
Method: CDDO induces monocytic differentiation in the poorly differentiated LCDB acute myelogenous leukemia cell line, derived from a chemotherapy-resistant patient at the NCI Pediatric Oncology Branch. FIG. 11 illustrates LCDB cells seeded in RPMI 1640/2% FBS, either alone (11A), with 2.5 ng/ml TGF-β1 (11B), with 10^−8 M CDDO (11C), or with both TGF-β1 and CDDO (11D). After 48 h, cytospin slide preparations were made and stained for α-naphthyl acetate esterase activity (kit from Sigma). PC12 cells were cultured for 5 days in gridded dishes in DMEM/10% FBS and 5% horse serum (Smith et al., 1997), either alone (11E), with 100 ng/ml 7S NGF (11F), with 10^−6 M CDDO (11G), or with both NGF and CDDO (11H). […] Methods for quantitative image analysis of size of cells and neurites have been described (De 1a Torre et al., 1997). Control cells in FIG. 11E are approximately 10 μm in diameter. 3T3-L1 cells were grown to confluency in DMEM/5% calf serum, and then treated once with CDDO in DMEM/10% FBS (FIG. 12A) or with CDDO and/or LG100268 in DMEM/10% FBS (FIG. 12B). Every two days thereafter, medium was changed to DMEM/10% FBS, without added CDD0 or LG100268. Cells were harvested on day 8 (FIG. 12A) or day 6 (FIG. 12B), and GPDH was measured in lysates, using a standard assay for consumption of NADH at 340 nm (Wise and Green, 1979).
The rat pheochromocytoma cell line, PC12, has been widely used to study neuronal development and differentiation. Treatment of these tumor cells with NGF is known to induce a neuronal phenotype, with extensive neurite outgrowth (Greene and Rischler, 1976; Guroff 1985). CDDO markedly potentiates these effects of NGF. FIGS. 11E and F show the induction of neurite outgrowth by NGF (100 ng/ml). […] When used in combination with NGF, CDDO (FIG. 11H) almost doubled the number of primary neurites/cell (from 1.2±0.2 S.E.M. to 2.1±0.1, p<0.001), and caused a greater than 3-fold increase in length of neurites (from 28±6 to 99±9 microns, p<0.001), and a 5-fold increase in neurite branching/cell (from 0.23±0.06 to 1.13±0.08, p<0.001). Thus, CDDO enhances neuronal differentiation of PC12 cells by increasing cell size, as well as the extent and complexity of neurite arborization.

COX-2 mRNA = assay: Northern blot for COX-2 mRNA in RAW 264.7 cells; format: cell-based, mouse; conditions: CDDO 10^−6 M, RAW 264.7, 12 h
Method: as §1

COX-2 [5] = assay: TPA-induced COX-2 in 184B5/HER mammary epithelial cells; format: cell-based, human; conditions: 184B5/HER cells
Description: These cells were selected because of the importance of stromal cell COX-2 in colon carcinogenesis (Oshima et al., 1996). […] Although CDDO effectively blocks the induction of COX-2 by agents such as IFN-γ, LPS, TNF-α, and IL-1, CDDO is ineffective when TPA is used as the inducer of COX-2. This has been seen in 18Co cells, as well as in the human mammary epithelial cell line, 184B5/HER (Zhai et al., 1993).

[6] = system: NO production in primary macrophages; assay: Suppression of NO production in primary macrophages (FIG. 14C); format: cell-based, mouse; conditions: levels as low as 10^−9 M; IFN-γ 10 ng/ml, 48 h
Method: as §1

[7] = CDDO 10^−6 M in combination with NGF 100 ng/ml, 5 days

## CC1(C)CC[C@]2(C(=O)O)CC[C@]3(C)[C@H](C(=O)C=C4[C@@]5(C)C=C(C#N)C(=O)C(C)(C)[C@@H]5CC[C@]43C)[C@@H]2C1 [Compound 6, 2-cyano-3,12-dioxoolean-1,9-dien-28-oic acid]
COX-2 [1]
  expression of COX-2 protein: blocked expression
iNOS mRNA
  lowering of iNOS mRNA expression: greater than 75%
[2]
  IC50: 100 nM
COX-2 [3]
  induction of COX-2 protein: blocked induction
[4]; CDDO 10^−6 M by itself, 5 days
  cell morphology: larger, flatter morphology
  neurite formation: does not induce neurite formation
[4]; [7]
  length of neurites: 99±9 microns
  neurite branching/cell: 1.13±0.08
[4]; CDDO 10^−6 M in combination with NGF 100 ng/ml, 5 days, ± S.E.M.
  number of primary neurites/cell: 2.1±0.1
[4]; CDDO in combination with NGF
  increase in length of neurites over NGF alone: greater than 3 fold
  increase in neurite branching/cell over NGF alone: 5 fold
COX-2 mRNA
  lowering of COX-2 mRNA expression: greater than 75%
COX-2 [5]
  blocking of COX-2 induction with TPA as inducer: ineffective
[6]
  inhibition of cumulative NO production: Significant inhibition
